Source: US8389679B2, “Targeted antimicrobial moieties” (priority 2009, dated 2013)
“Also recorded” adds a separate entry of the source.

Each substance was assayed on target microorganisms (assay: Screen of synthesized peptides for binding to target microorganisms (targeting peptides, Tables 2 and 3)). Conditions: microorganism(s) the targeting peptide was identified as binding to (Table 3).
Experimental: Once noted, these peptides were batch synthesized on a multiplex peptide synthesizer, yielding 5-10 mg of each peptide that could readily be screened for biological activity (e.g., binding activity and/or antimicrobial activity.
Other suitable targeting peptides include the peptides that have been identified as binding to particular target organisms as shown in Table 3 and/or Table 4.

| Substance | Target(s) |
| --- | --- |
| 1T-52 (DEYPAKLPLSDKGATEPRRH; synthetic novel tartgeting peptide IT-52) | S. aureus; also recorded: C. xerosis; also recorded: P. aeruginosa |
| 1T-53 (SDILAEMFEKGELQTLVKDAAAKANA; synthetic novel tartgeting peptide IT-53) | P. aeruginosa |
| 1T-54 (RWVSCNPSWRIQ; synthetic novel tartgeting peptide IT-54) | S. epidermidis; also recorded: C. xerosis; also recorded: C. striatum; also recorded: P. aeruginosa |
| 1T-55 (NHKTLKEWKAKWGPEAVESWATLLG; synthetic novel tartgeting peptide IT-55) | C. xerosis; also recorded: P. aeruginosa |
| 1T-56 (LALIGAGIWMIRKG; synthetic novel tartgeting peptide IT-56) | C. xerosis; also recorded: P. aeruginosa |
| 1T-57 (RLEYRRLETQVEENPESGRRPMRG; synthetic novel tartgeting peptide IT-57) | P. aeruginosa |
| 1T-58 (CDDLHALERAGKLDALLSA; synthetic novel tartgeting peptide IT-58) | P. aeruginosa |
| 1T-59 (AVGNNLGKDNDSGHRGKKHRKHKHR; synthetic novel tartgeting peptide IT-59) | S. aureus; also recorded: S. epidermidis; also recorded: P. aeruginosa |
| 1T-60 (YLTSLGLDAAEQAQGLLTILKG; synthetic novel tartgeting peptide IT-60) | S. aureus; also recorded: S. epidermidis; also recorded: C. jeikeium; also recorded: C. striatum; also recorded: P. aeruginosa |
| 1T-61 (HATLLPAVREAISRQLLPALVPRG; synthetic novel tartgeting peptide IT-61) | P. aeruginosa |
| 1T-62 (GCKGCAQRDPCAEPEPYFRLR; synthetic novel tartgeting peptide IT-62) | S. epidermidis; also recorded: P. aeruginosa |
| 1T-63 (EPLILKELVRNLFLFCYARALR; synthetic novel tartgeting peptide IT-63) | S. aureus; also recorded: S. epidermidis; also recorded: C. jeikeium; also recorded: C. xerosis; also recorded: C. striatum; also recorded: P. aeruginosa |
| 1T-64 (QTVHHIHMHVLGQRQMHWPPG; synthetic novel tartgeting peptide IT-64) | S. aureus; also recorded: S. epidermidis; also recorded: C. jeikeium; also recorded: C. xerosis; also recorded: C. striatum; also recorded: P. aeruginosa |
| 1T-65 (HARAAVGVAELPRGAAVEVELIAAVRP; synthetic novel tartgeting peptide IT-65) | S. mutans; also recorded: S. aureus; also recorded: S. epidermidis; also recorded: C. jeikeium; also recorded: C. xerosis; also recorded: C. striatum; also recorded: P. aeruginosa |
| 1T-66 (DTDCLSRAYAQRIDELDKQYAGIDKPL; synthetic novel tartgeting peptide IT-66) | S. mutans; also recorded: S. aureus; also recorded: S. epidermidis; also recorded: C. jeikeium; also recorded: C. xerosis; also recorded: C. striatum; also recorded: P. aeruginosa |
| 1T-67 (GQRQRLTCGRVSGCSEGPSREAAR; synthetic novel tartgeting peptide IT-67) | S. aureus; also recorded: S. epidermidis; also recorded: C. jeikeium; also recorded: C. xerosis; also recorded: C. striatum; also recorded: P. aeruginosa |
| 1T-68 (GGTKEIVYQRG; synthetic novel tartgeting peptide IT-68) | S. mutans; also recorded: S. aureus; also recorded: C. jeikeium; also recorded: C. xerosis; also recorded: C. striatum; also recorded: P. aeruginosa |
| 1T-69 (ILSQEADRKKLF; synthetic novel tartgeting peptide IT-69) | S. mutans; also recorded: P. aeruginosa |
| 1T-70 (NRQAQGERAHGEQQG; synthetic novel tartgeting peptide IT-70) | S. aureus; also recorded: C. jeikeium; also recorded: P. aeruginosa |
| 1T-71 (KIDTNQWPPNKEG; synthetic novel tartgeting peptide IT-71) | P. aeruginosa |
| 1T-72 (EPTDGVACKER; synthetic novel tartgeting peptide IT-72) | P. aeruginosa |

| Substance | Target(s) |
| --- | --- |
| 1T-73 (GWWEELLHETILSKFKITKALELPIQL; synthetic novel tartgeting peptide IT-73) | Streptococcus; also recorded: pneumoniae |
| 1T-74 (DIDWGRKISCAAGVAYGAIDGCATTV; synthetic novel tartgeting peptide IT-74) | S. pneumoniae |
| 1T-75 (GVARGLQLGIKTRTQWGAATGAA; synthetic novel tartgeting peptide IT-75) | S. pneumoniae |
| 1T-76 (EMRLSKFFRDFILWRKK; synthetic novel tartgeting peptide IT-76) | S. pneumoniae |
| 1T-77 (EMRISRIILDFLFLRKK; synthetic novel tartgeting peptide IT-77) | S. pneumoniae |
| 1T-78 (FFKTIFVLILGALGVAAGLYIEKNYIDK; synthetic novel tartgeting peptide IT-78) | S. pneumoniae |
| 1T-79 (FGTPWSITNFWKKNFNDRPDFDSDRRRY; synthetic novel tartgeting peptide IT-79) | S. pneumoniae |
| 1T-80 (GGNLGPGFGVIIP; synthetic novel tartgeting peptide IT-80) | S. pneumoniae |
| 1T-81 (AIATGLDIVDGKFDGYLWA; synthetic novel tartgeting peptide IT-81) | S. pneumoniae |
| 1T-82 (FGVGVGIALFMAGYAIGKDLRKKFGKSC; synthetic novel tartgeting peptide IT-82) | S. pneumoniae |
| 1T-83 (QKPRKNETFIGYIQRYDIDGNGYQSLPCPQN; synthetic novel tartgeting peptide IT-83) | S. pneumoniae |
| 1T-84 (FRKKRYGLSILLWLNAFTNLVNSIHAFYMTLF; synthetic novel tartgeting peptide IT-84) | S. pneumoniae |
| 1T-85 (VMASLTWRMRAASASLPTHSRTDA; synthetic novel tartgeting peptide IT-85) | A. naeslundii, F. nucleatum,; also recorded: P. gingivalis; also recorded: S. epidermidis,; also recorded: S. gordonii, S. mitis, S. mutans,; also recorded: S. oralis, S. salivarious,; also recorded: S. sanguinis |
| 1T-86 (HRKNPVLGVGRRHRAHNVA; synthetic novel tartgeting peptide IT-86) | S. mitis, S. oralis, S. salivarious |
| 1T-87 (EAVGQDLVDAHHP; synthetic novel tartgeting peptide IT-87) | S. mitis, S. mutans, S. oralis |
| 1T-89 (HEDDKRRGMSVEVLGFEVVQHEE; synthetic novel tartgeting peptide IT-89) | S. mitis, S. mutans |
| 1T-90 (RNVIGQVL; synthetic novel tartgeting peptide IT-90) | S. gordonii, S. mitis, S. mutans,; also recorded: S. oralis, S. sanguinis |
| 1T-91 (TSVRPGAAGAAVPAGAAGAAGAGWRWP; synthetic novel tartgeting peptide IT-91) | S. mitis, S. mutans, S. oralis,; also recorded: S. sanguinis |
| 1T-92 (GQDEGQRRAGVGEGQGVDG; synthetic novel tartgeting peptide IT-92) | S. mitis, S. mutans |
| 1T-93 (AMRSVNQA; synthetic novel tartgeting peptide IT-93) | S. epidermidis, S. gordonii,; also recorded: S. mitis, S. mutans,; also recorded: S. oralis, S. sanguinis |
